# In US8269008B2, “Oxazolopyridine and isoxazolopyridine derivatives for use in the treatment of HIF-mediated conditions” (FibroGen, Inc., priority 2007, dated 2012):
# Biological target: T1, HIF-PH2 (EGLN1) (Homo sapiens, UniProt Q9GZT9)
# T1 construct: made in house; host or cells: insect Hi5 cells
# Test: HIF-PH assay (14CO2 capture, peptide-dependent turnover)
# Assay type: biochemical
# Details: for inhibition at 200 µM: Concentration 200.00 μM; for inhibition at 22.22 µM: Concentration 22.22 μM
# Description: Ketoglutaric acid α-[1-^14C]-sodium salt, alpha-ketoglutaric acid sodium salt, and HPLC purified peptide may be obtained from commercial sources, e.g., Perkin-Elmer (Wellesley Mass.), Sigma-Aldrich, and SynPep Corp. (Dublin Calif.), respectively. Peptides for use in the assay may be fragments of HIFα as described above or as disclosed in International Publication WO 2005/118836, incorporated by reference herein. For example, a HLF peptide for use in the HIF-PH assay is [methoxycoumarin]-DLDLEALAPYIPADDDFQL-amide. HIF-PH, e.g., HIF-PH2 (EGLN1), can be expressed in, e.g., insect Hi5 cells, and partially purified, e.g., through a SP ion exchange chromatography column. Enzyme activity is determined by capturing ^14CO2 using an assay described by Kivirikko and Myllyla (1982, Methods Enzymol. 82:245-304). Assay reactions contain 50 mM HEPES (pH 7.4), 100 μM α-ketoglutaric acid sodium salt, 0.30 μCi/mL ketoglutaric acid α-[1-^14C]-sodium salt, 40 μM FeSO4, 1 mM ascorbate, 1541.8 units/mL Catalase, with or without 50 μM peptide substrate and various concentrations of compound of the invention. Reactions are initiated by addition of HIF-PH enzyme.
# The peptide-dependent percent turnover is calculated by subtracting percent turnover in the absence of peptide from percent turnover in the presence of substrate peptide. Percent inhibition and IC50 are calculated using peptide-dependent percent turnover at given inhibitor concentrations. Calculation of IC50 values for each inhibitor is conducted using GraFit software (Erithacus Software Ltd., Surrey UK). […]
# T1 sequence (Q9GZT9 whole entry, species assumed): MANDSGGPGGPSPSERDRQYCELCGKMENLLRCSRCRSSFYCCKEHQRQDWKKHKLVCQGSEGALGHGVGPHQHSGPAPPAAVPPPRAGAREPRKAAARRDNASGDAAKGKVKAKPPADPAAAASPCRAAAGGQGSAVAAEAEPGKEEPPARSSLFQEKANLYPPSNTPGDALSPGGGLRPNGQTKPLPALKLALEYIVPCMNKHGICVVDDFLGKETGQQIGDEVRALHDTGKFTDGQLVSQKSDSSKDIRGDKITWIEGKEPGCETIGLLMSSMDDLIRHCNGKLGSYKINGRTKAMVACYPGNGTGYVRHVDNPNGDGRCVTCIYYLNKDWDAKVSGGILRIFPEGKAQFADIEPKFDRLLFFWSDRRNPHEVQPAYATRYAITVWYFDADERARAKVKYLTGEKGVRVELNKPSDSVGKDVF
inhibition at 200 µM,inhibition at 22.22 µM,Compound
94.2%,–,"O=C(O)CNC(=O)c1nc(C(F)(F)F)c2c(-c3ccccc3)noc2c1O [Example 64, [(7-Hydroxy-3-phenyl-4-trifluoromethyl-isoxazolo[4,5-c]pyridine-6-carbonyl)-amino]-acetic acid]"
99.5%,–,"CCCCc1nc(C(=O)NCC(=O)O)c(O)c2oc(-c3ccccc3)nc12 [Example 7, [(4-Butyl-7-hydroxy-2-phenyl-oxazolo[4,5-c]pyridine-6-carbonyl)-amino]-acetic acid]"
–,98.4%,"O=C(O)CNC(=O)c1nc(-c2ccccc2)c2onc(-c3ccccc3)c2c1O [Example 13, [(4-Hydroxy-3,7-diphenyl-isoxazolo[5,4-c]pyridine-5-carbonyl)-amino]-acetic acid]"
–,97.9%,"O=C(O)CNC(=O)c1ncc2onc(-c3ccc(F)cc3)c2c1O [Example 19, {[3-(4-Fluoro-phenyl)-4-hydroxy-isoxazolo[5,4-c]pyridine-5-carbonyl]-amino}-acetic acid]"
–,99.1%,"O=C(O)CNC(=O)c1ncc2onc(-c3cccc(OC(F)(F)F)c3)c2c1O [Example 32, {[4-Hydroxy-3-(3-trifluoromethoxy-phenyl)-isoxazolo[5,4-c]pyridine-5-carbonyl]-amino}-acetic acid]"
99%,–,"O=C(O)CNC(=O)c1ncc2c(-c3cccs3)noc2c1O [Example 47, [(7-Hydroxy-3-thiophen-2-yl-isoxazolo[4,5-c]pyridine-6-carbonyl)-amino]-acetic acid]"
